Assay results as given in publication PMC3445454, “Broad and Cross-Clade CD4^+ T-Cell Responses Elicited by a DNA Vaccine Encoding Highly Conserved and Promiscuous HIV-1 M-Group Consensus Peptides” (PLoS ONE, 2012).
Read-outs that look alike come from different tables or passages of the source. Ends that are not written are not given here.

Biological target: HLA-DR DRB1*04:01 (Homo sapiens, UniProt P01903+P01911, A100K/A169T/F76Y/I96L/K127E/L162R/M171V/N62H/P40V/Q125Y/R42H/S133A/S149N/S66Y/V115G/V209L/W38E)
Experiment: biochemical
Type: binding
[1] = read-out: Binding capacity/IC50 (nM) DRB1*04:01

| Molecule | IC50 [1] [nM] | IC50 [nM] |
| --- | --- | --- |
| CC[C@H](C)[C@H](NC(=O)CNC(=O)[C@H](CCCCN)NC(=O)[C@H](Cc1c[nH]cn1)NC(=O)[C@H](C)NC(=O)[C@@H]1CCCN1C(=O)[C@@H](NC(=O)[C@H](Cc1c[nH]c2ccccc12)NC(=O)[C@H](CO)NC(=O)[C@H](CC(C)C)NC(=O)[C@H](Cc1ccc(O)cc1)NC(=O)[C@@H](NC(=O)[C@H](CCCCN)NC(=O)[C@H](CCC(=O)O)NC(=O)[C@@H](N)CCCCN)C(C)C)C(C)C)C(=O)NCC(=O)NCC(=O)N[C@@H](CC(N)=O)C(=O)N[C@@H](CCC(=O)O)C(N)=O [RT(528-546)] | 68 | – |
| YAKMRSAHTNDVKQL-NH2 [RT(354-368)] | 79 | – |
| VGSLQYLALTALITPKK-NH2 [vif(142-158)] | – | 6.4 |
| SEELRSLYNTVATLYCVHQ-NH2 [p17(72-90)] | 279 | – |
| CSCC[C@H](NC(=O)[C@H](CCCCN)NC(=O)[C@H](C)NC(=O)[C@H](Cc1ccc(O)cc1)NC(=O)[C@H](CCCCN)NC(=O)CNC(=O)[C@@H](NC(=O)[C@H](CCCCN)NC(=O)[C@H](CC(C)C)NC(=O)[C@H](CC(N)=O)NC(=O)[C@H](CCCCN)NC(=O)[C@H](Cc1ccccc1)NC(=O)[C@@H]1CCCN1C(=O)[C@H](CCC(=O)O)NC(=O)[C@@H](N)CCC(N)=O)[C@@H](C)O)C(N)=O [RT(343-357)] | – | 591 |
| CC[C@H](C)[C@H](NC(=O)[C@H](Cc1ccc(O)cc1)NC(=O)CNC(=O)[C@H](CO)NC(=O)[C@H](C)NC(=O)[C@@H](NC(=O)[C@H](Cc1c[nH]cn1)NC(=O)[C@@H](NC(=O)[C@H](C)NC(=O)[C@@H](NC(=O)[C@H](CC(C)C)NC(=O)[C@@H](NC(=O)[C@@H](NC(=O)[C@H](CCCCN)NC(=O)CNC(=O)[C@@H](N)CCC(=O)O)[C@@H](C)CC)[C@@H](C)CC)C(C)C)C(C)C)C(C)C)C(=O)N[C@@H](CCC(=O)O)C(N)=O [integrase(69-85)] | 7.6 | – |
| DEELLKAVRIIKILYQSNP-NH2 [rev(9-27)] | 13 | – |
| IVALIIAIVVWTIV-NH2 [vpu(13-26)] | 19600 | – |
| CC[C@H](C)[C@H](NC(=O)[C@@H]1CCCN1C(=O)[C@H](CCC(=O)O)NC(=O)[C@@H](N)CCCCN)C(=O)N[C@H](C(=O)NCC(=O)N[C@@H](C)C(=O)N[C@@H](CCC(=O)O)C(=O)N[C@H](C(=O)N[C@@H](Cc1ccccc1)C(=O)N[C@@H](Cc1ccc(O)cc1)C(=O)N[C@H](C(=O)N[C@@H](CC(=O)O)C(=O)NCC(=O)N[C@@H](C)C(N)=O)C(C)C)[C@@H](C)O)C(C)C [RT(431-445)] | 23 | – |
| EAVRHFPRPWLHGL-NH2 [vpr(29-42)] | – | 1290 |
| CC[C@H](C)[C@H](NC(=O)[C@H](CCCCN)NC(=O)[C@@H](NC(=O)[C@@H](NC(=O)[C@@H](N)CCC(N)=O)[C@@H](C)CC)[C@@H](C)O)C(=O)N[C@@H](CCC(N)=O)C(=O)N[C@@H](CC(N)=O)C(=O)N[C@@H](Cc1ccccc1)C(=O)N[C@@H](CCCNC(=N)N)C(=O)N[C@H](C(=O)N[C@@H](Cc1ccc(O)cc1)C(=O)N[C@@H](Cc1ccc(O)cc1)C(=O)N[C@@H](CCCNC(=N)N)C(=O)N[C@@H](CC(=O)O)C(=O)N[C@@H](CO)C(=O)N[C@@H](CCCNC(=N)N)C(=O)N[C@@H](CC(=O)O)C(=O)N1CCC[C@H]1C(=O)N[C@H](C(=O)N[C@@H](Cc1c[nH]c2ccccc12)C(N)=O)[C@@H](C)CC)C(C)C [integrase(216-235)] | 203 | – |
| NYPIVQNLQGQMVHQAISPR-NH2 [p17(131-132)/p24(1-18)] | 83 | – |
| CC[C@H](C)[C@H](NC(=O)[C@H](C)NC(=O)[C@@H](N)CCC(=O)O)C(=O)N[C@H](C(=O)N[C@@H](CCCNC(=N)N)C(=O)N[C@H](C(=O)N[C@@H](CC(C)C)C(=O)N[C@@H](CCC(N)=O)C(=O)N[C@@H](CCC(N)=O)C(=O)N[C@@H](CC(C)C)C(=O)N[C@@H](CC(C)C)C(=O)N[C@@H](Cc1ccccc1)C(=O)N[C@H](C(=O)N[C@@H](Cc1c[nH]cn1)C(=O)N[C@@H](Cc1ccccc1)C(=O)N[C@@H](CCCNC(=N)N)C(=O)N[C@H](C(=O)NCC(=O)N[C@@H](CS)C(=O)N[C@@H](CCC(N)=O)C(=O)N[C@@H](Cc1c[nH]cn1)C(=O)N[C@@H](CO)C(=O)N[C@@H](CCCNC(=N)N)C(N)=O)[C@@H](C)CC)[C@@H](C)CC)[C@@H](C)CC)[C@@H](C)CC [vpr(58-80)] | – | 361 |
| CC[C@H](C)[C@H](NC(=O)[C@@H](NC(=O)[C@H](CCCCN)NC(=O)[C@@H](NC(=O)[C@@H]1CCCN1C(=O)[C@H](Cc1c[nH]c2ccccc12)NC(=O)[C@H](CCCNC(=N)N)NC(=O)CNC(=O)[C@H](C)NC(=O)[C@H](CC(C)C)NC(=O)[C@H](CCCCN)NC(=O)[C@H](CC(C)C)NC(=O)[C@@H](NC(=O)[C@H](Cc1ccccc1)NC(=O)[C@H](Cc1ccc(O)cc1)NC(=O)[C@H](C)NC(=O)[C@@H](NC(=O)[C@@H](N)CCC(=O)O)[C@@H](C)O)[C@@H](C)CC)C(C)C)C(C)C)C(N)=O [integrase(96-113)] | 1770 | – |
| CC[C@H](C)[C@H](NC(=O)[C@H](CCCCN)NC(=O)[C@H](CCC(N)=O)NC(=O)[C@@H](NC(=O)[C@H](C)NC(=O)[C@H](CCC(=O)O)NC(=O)[C@@H](N)[C@@H](C)O)C(C)C)C(=O)N[C@@H](C)C(=O)N[C@H](C(=O)N[C@@H](CCC(=O)O)C(=O)N[C@@H](CO)C(=O)N[C@H](C(=O)N[C@H](C(=O)N[C@H](C(=O)N[C@@H](Cc1c[nH]c2ccccc12)C(=O)NCC(=O)N[C@@H](CCCCN)C(=O)N[C@H](C(=O)N1CCC[C@H]1C(=O)N[C@@H](CCCCN)C(=O)N[C@@H](Cc1ccccc1)C(=O)N[C@@H](CCCNC(=N)N)C(=O)N[C@@H](CC(C)C)C(N)=O)[C@@H](C)O)[C@@H](C)CC)C(C)C)[C@@H](C)CC)[C@@H](C)O [RT(369-391)] | 146 | – |
| VVIQDNSDIKVVPRRKAKII-NH2 [integrase(249-268)] | – | 2870 |
| CC[C@H](C)[C@H](NC(=O)[C@H](C)NC(=O)[C@H](CCCCN)NC(=O)[C@H](CCCCN)NC(=O)CNC(=O)[C@H](CS)NC(=O)[C@@H](NC(=O)[C@H](CCC(=O)O)NC(=O)[C@@H](NC(=O)[C@H](CC(C)C)NC(=O)[C@@H](NC(=O)[C@H](CCC(N)=O)NC(=O)[C@H](CC(=O)O)NC(=O)[C@H](Cc1ccc(O)cc1)NC(=O)[C@H](CCC(N)=O)NC(=O)[C@H](CCCNC(=N)N)NC(=O)[C@@H](NC(=O)[C@H](CCCCN)NC(=O)[C@@H](NC(=O)[C@@H](N)Cc1ccccc1)[C@@H](C)CC)C(C)C)[C@@H](C)CC)[C@@H](C)CC)[C@@H](C)CC)C(=O)NCC(=O)N[C@H](C(=O)N[C@H](C(N)=O)C(C)C)[C@@H](C)O [protease(53-75)] | – | 675 |
| CC(C)C[C@H](NC(=O)[C@H](CCCCN)NC(=O)[C@@H](NC(=O)[C@H](CC(C)C)NC(=O)[C@@H]1CCCN1C(=O)[C@@H]1CCCN1C(=O)[C@@H](NC(=O)[C@H](CC(N)=O)NC(=O)[C@@H](NC(=O)[C@H](Cc1ccccc1)NC(=O)[C@H](CCC(=O)O)NC(=O)[C@H](Cc1c[nH]c2ccccc12)NC(=O)[C@@H](N)CCC(=O)O)C(C)C)[C@@H](C)O)C(C)C)C(=O)N[C@@H](Cc1c[nH]c2ccccc12)C(=O)N[C@@H](Cc1ccc(O)cc1)C(N)=O [RT(413-427)] | – | 42 |
